Test results from patent publication US12077503B2, “Substituted cyclic amides and their use as herbicides” (FMC CORPORATION, priority 2015, dated 2024).

Experiments:
Assay type in all cases: in vivo
[1] = test system: crabgrass, large (large crabgrass, Digitaria sangumnalis); experiment: Test E postemergence; conditions: scale 0 to 100
Description: (§1) Seeds of plant species selected from corn (Zea mays), soybean (Glycine max), velvetleaf (Abutilon theophrasti), lambsquarters (Chenopodium album), poinsettia, wild (wild poinsettia, Euphorbia heterophylla), pigweed, palmer (palmer pigweed, Amaranthus palmeri), waterhemp (common waterhemp, Amaranthus rudis), surinam grass (Brachiaria decumbens), crabgrass, large (large crabgrass, Digitaria sangumnalis), crabgrass, Brazil (Brazilian crabgrass, Digitaria horizontalis), Panicum, fall (fall Panicum, Panicum dichotomiflorum), foxtail, giant (giant foxtail, Setaria faberii), foxtail, green (green foxtail, Setaria viridis), goosegrass (Eleusine indica), johnsongrass (Sorghum halepense), ragweed (common ragweed, Ambrosia elatior), barnyardgrass (Echinochloa crus-galli), sandbur (southern sandbur, Cenchrus echinatus), arrowleaf Sida (Sida rhombifolia), ryegrass, Italian (Italian ryegrass, Lolium multiflorum), dayflower, VA (Virginia dayflower, Commelina virginica), field bindweed (Convolvulus arvensis), morningglory (Ipomoea coccinea), nightshade (eastern black nightshade, Solanum ptycanthum), Kochia (Kochia scoparia), nutsedge, yellow (yellow nutsedge, Cyperus esculentus), horseweed (Conyza canadensis), and beggarticks (hairy beggarticks, Bidens pilosa), were planted into a silt loam soil and treated preemergence with test chemicals formulated in a non-phytotoxic solvent mixture which included a surfactant.
(§2) At the same time, plants selected from these crop and weed species were planted in pots containing Sunshine Redi-Earth planting medium comprising spaghnum peat moss, vermiculite, starter nutrients and dolomitic limestone and treated with postemergence applications of a test chemical formulated in the same manner. Plants ranged in height from 2 to 18 cm (1- to 4-leaf stage) for postemergence treatments. Treated plants and controls were maintained in a greenhouse for 14 to 21 d, after which time all species were compared to controls and visually evaluated. Plant response ratings, summarized in Table E, are based on a scale of 0 to 100 where 0 is no effect and 100 is complete control. A dash (-) response means no test result.

soybean (Glycine max) = experiment: Test E postemergence; conditions: scale 0 to 100
Description: as §1, §2

corn (Zea mays) = experiment: Test E postemergence; conditions: scale 0 to 100
Description: as §1, §2

[2] = test system: waterhemp (common waterhemp, Amaranthus rudis); experiment: Test E postemergence; conditions: scale 0 to 100
Description: as §1, §2

[3] = test system: pigweed, palmer (palmer pigweed, Amaranthus palmeri); experiment: Test E postemergence; conditions: scale 0 to 100
Description: as §1, §2

[4] = test system: foxtail, giant (giant foxtail, Setaria faberii); experiment: Test E postemergence; conditions: scale 0 to 100
Description: as §1, §2

[5] = test system: water seeded rice seedlings (Rice, W. S. Jap, Oryza sativa cv. ‘Japonica—M202’); experiment: Test F flooded paddy test; set-up: key: 0 = no effect, 100 = complete control; conditions: Flood
Description: (§3) Plant species in the flooded paddy test consisted of one stand of 9 or 10 water seeded rice seedlings (Rice, W. S. Jap, Oryza sativa cv. ‘Japonica—M202’ or Rice, W. S. Ind, ‘Indica’), and two stands of 3 or 4 transplanted rice seedlings (Oryza sativa cv. ‘Japonica—M202’), Monochoria (Monochoria vaginalis), sedge, umbrella (small-flower umbrella sedge, Cyperus difformis), hardstem bulrush (Scirpus juncoides), redstem (purple redstem, Ammannia coccinea), rice flatsedge (Cyperus iria), bearded sprangletop (Leptochloa fascicularis), barnyardgrass (Echinochloa crus-galli), waterplantain (common waterplantain, Alisma plantago-aquatica), and late watergrass (Echinochloa oryzicola) grown to the 2 to 2.5 leaf stage for testing. Potted plants were grown in a greenhouse with day/night temperature settings of 30/27° C., and supplemental balanced lighting was provided to maintain a 16-hour photoperiod. At time of treatment, test pots were flooded to 3 cm above the soil surface, treated by application of test compounds directly to the paddy water, and then maintained at that water depth for the duration of the test. Effects of treatments on rice and weeds were visually evaluated by comparison to untreated controls after 21 d. Plant response ratings, summarized in Table F, are based on a scale of 0 to 100 where 0 is no effect and 100 is complete control. A dash (-) response means no test result.

[6] = test system: barnyardgrass (Echinochloa crus-galli); experiment: Test F flooded paddy test; set-up: key: 0 = no effect, 100 = complete control; conditions: Flood
Description: as §3

[7] = test system: Monochoria (Monochoria vaginalis); experiment: Test F flooded paddy test; set-up: key: 0 = no effect, 100 = complete control; conditions: Flood
Description: as §3

[8] = test system: late watergrass (Echinochloa oryzicola); experiment: Test F flooded paddy test; set-up: key: 0 = no effect, 100 = complete control; conditions: Flood
Description: as §3

[9] = test system: transplanted rice seedlings (Oryza sativa cv. ‘Japonica—M202’); experiment: Test F flooded paddy test; set-up: key: 0 = no effect, 100 = complete control; conditions: Flood
Description: as §3

[10] = test system: bearded sprangletop (Leptochloa fascicularis); experiment: Test F flooded paddy test; set-up: key: 0 = no effect, 100 = complete control; conditions: Flood
Description: as §3

Compound: CN1C[C@H](c2ccc(C(F)(F)F)cc2)[C@@H](C(=O)Nc2cccc(F)c2F)C1=O [Compound 623, (3S,4S)—N-(2,3-difluorophenyl)-1-methyl-2-oxo-4-[4-(trifluoromethyl)phenyl]-3-pyrrolidinecarboxamide]
- Plant response rating: Crabgrass, Large ([1]; 16 g ai/ha): 1
- Plant response rating: Crabgrass, Large ([1]; 31 g ai/ha): 10
- Plant response rating: Crabgrass, Large ([1]; 62 g ai/ha): 10
- Plant response rating: Crabgrass, Large ([1]; 125 g ai/ha): 30
- Plant response rating: Crabgrass, Large ([1]; 250 g ai/ha): 55
- Plant response rating: Soybean (soybean (Glycine max); 16 g ai/ha): 0
- Plant response rating: Soybean (soybean (Glycine max); 31 g ai/ha): 0
- Plant response rating: Soybean (soybean (Glycine max); 62 g ai/ha): 20
- Plant response rating: Soybean (soybean (Glycine max); 125 g ai/ha): 19
- Plant response rating: Soybean (soybean (Glycine max); 250 g ai/ha): 35
- Plant response rating: Corn (corn (Zea mays); 16 g ai/ha): 0
- Plant response rating: Corn (corn (Zea mays); 31 g ai/ha): 0
- Plant response rating: Corn (corn (Zea mays); 62 g ai/ha): 1
- Plant response rating: Corn (corn (Zea mays); 125 g ai/ha): 1
- Plant response rating: Corn (corn (Zea mays); 250 g ai/ha): 4
- Plant response rating: Waterhemp ([2]; 16 g ai/ha): 11
- Plant response rating: Waterhemp ([2]; 31 g ai/ha): 45
- Plant response rating: Waterhemp ([2]; 62 g ai/ha): 55
- Plant response rating: Waterhemp ([2]; 125 g ai/ha): 65
- Plant response rating: Waterhemp ([2]; 250 g ai/ha): 68
- Plant response rating: Pigweed, Palmer ([3]; 16 g ai/ha): 6
- Plant response rating: Pigweed, Palmer ([3]; 31 g ai/ha): 19
- Plant response rating: Pigweed, Palmer ([3]; 62 g ai/ha): 43
- Plant response rating: Pigweed, Palmer ([3]; 125 g ai/ha): 40
- Plant response rating: Pigweed, Palmer ([3]; 250 g ai/ha): 68
- Plant response rating: Foxtail, Giant ([4]; 16 g ai/ha): 5
- Plant response rating: Foxtail, Giant ([4]; 31 g ai/ha): 54
- Plant response rating: Foxtail, Giant ([4]; 62 g ai/ha): 56
- Plant response rating: Foxtail, Giant ([4]; 125 g ai/ha): 78
- Plant response rating: Foxtail, Giant ([4]; 250 g ai/ha): 69

Compound: CN1C[C@H](c2ccc(F)c(F)c2)[C@@H](C(=O)Nc2ccccc2F)C1=O [Compound 596, (3S,4S)-4-(3,4-difluorophenyl)-N-(2-fluorophenyl)-1-methyl-2-oxo-3-pyrrolidinecarboxamide]
- Plant response rating: Rice, Water Seeded ([5]; 16 g ai/ha): 0
- Plant response rating: Rice, Water Seeded ([5]; 32 g ai/ha): 0
- Plant response rating: Rice, Water Seed. ([5]; 64 g ai/ha): 10
- Plant response rating: Rice, Water Seed. ([5]; 125 g ai/ha): 10
- Plant response rating: Rice, Water Seeded ([5]; 250 g ai/ha): 15
- Plant response rating: Barnyardgrass ([6]; 16 g ai/ha): 45
- Plant response rating: Barnyardgrass ([6]; 32 g ai/ha): 65
- Plant response rating: Barnyardgrass ([6]; 64 g ai/ha): 100
- Plant response rating: Barnyardgrass ([6]; 125 g ai/ha): 100
- Plant response rating: Barnyardgrass ([6]; 250 g ai/ha): 100
- Plant response rating: Monochoria ([7]; 16 g ai/ha): 25
- Plant response rating: Monochoria ([7]; 32 g ai/ha): 45
- Plant response rating: Monochoria ([7]; 64 g ai/ha): 100
- Plant response rating: Monochoria ([7]; 125 g ai/ha): 100
- Plant response rating: Monochoria ([7]; 250 g ai/ha): 100
- Plant response rating: Watergrass, Late ([8]; 16 g ai/ha): 15
- Plant response rating: Watergrass, Late ([8]; 32 g ai/ha): 40
- Plant response rating: Watergrass, Late ([8]; 64 g ai/ha): 85
- Plant response rating: Watergrass, Late ([8]; 125 g ai/ha): 100
- Plant response rating: Watergrass, Late ([8]; 250 g ai/ha): 100
- Plant response rating: Rice, Transplanted ([9]; 16 g ai/ha): 0
- Plant response rating: Rice, Transplanted ([9]; 32 g ai/ha): 0
- Plant response rating: Rice, Transplanted ([9]; 64 g ai/ha): 0
- Plant response rating: Rice, Transplanted ([9]; 125 g ai/ha): 0
- Plant response rating: Rice, Transplanted ([9]; 250 g ai/ha): 0
- Plant response rating: Sprangletop, Brdd. ([10]; 16 g ai/ha): 0
- Plant response rating: Sprangletop, Brdd. ([10]; 32 g ai/ha): 40
- Plant response rating: Sprangletop, Brdd. ([10]; 64 g ai/ha): 85
- Plant response rating: Sprangletop, Brdd. ([10]; 125 g ai/ha): 85
- Plant response rating: Sprangletop, Brdd. ([10]; 250 g ai/ha): 95
